Experimental findings from publication PMC6125496 (Antimicrobial Agents and Chemotherapy, 2018) are described below.

Converted amounts (≈) assume the structure as drawn. Read-outs that look alike come from different tables or passages of the source.

Test [1] deals with Acinetobacter baumannii ATCC 19606. Put plainly: microbe, parasite or virus in culture. Particulars: Acinetobacter baumannii, ATCC19606. The text has this:
(§1) Reference strains are from the German Collection of Microorganisms and Cell Cultures (DSMZ), the American Type Culture Collection (ATCC), the National Collection of Type Cultures (NCTC), and the Medical and Molecular Microbiology, Faculty of Science and Medicine, University of Fribourg, Switzerland.

For test [2], the system named is Citrobacter freundii DSM 30039. Put plainly: microbe, parasite or virus in culture. The note with it: Citrobacter freundii, DSM30039.
From the text: as §1

The test system of test [3] is Citrobacter kozeri DSM 4595. Nature of the test: microbe, parasite or virus in culture. Particulars: Citrobacter, DSM4595.
From the text: as §1

The subject of test [4] is Enterobacter aerogenes DSM 30053. Put plainly: microbe, parasite or virus in culture. The note with it: Klebsiella aerogenes, DSM30053.
From the text: as §1

For test [5], the system named is Enterobacter cloacae DSM 14563. Nature of the test: microbe, parasite or virus in culture. Particulars: Enterobacter cloacae, DSM14563.
From the text: as §1

In test [6] the test system is Enterococcus faecalis DSM 2570. Put plainly: microbe, parasite or virus in culture. The note with it: Enterococcus faecalis, DSM2570.
From the text: as §1

Test [7] deals with Enterococcus faecium DSM 20477. Nature of the test: microbe, parasite or virus in culture. The note with it: Enterococcus faecium, DSM20477.
From the text: as §1

Test [8] relates to Escherichia coli ATCC 25922. Put plainly: microbe, parasite or virus in culture. The note with it: Escherichia coli, ATCC25922.
From the text: as §1

In test [9] the test system is Escherichia coli BAA-2469. Put plainly: microbe, parasite or virus in culture. The note with it: NDM-1.
From the text: as §1

The subject of test [10] is Escherichia coli BAA-2471. Nature of the test: microbe, parasite or virus in culture. The note with it: Escherichia coli, BAA2471.
From the text: as §1

Test [11] has as its system Klebsiella pneumoniae ATCC 43816. Nature of the test: microbe, parasite or virus in culture. Particulars: Klebsiella pneumoniae, ATCC43816.
From the text: as §1

For test [12], the system named is Klebsiella pneumoniae ATCC BAA-1904. Nature of the test: microbe, parasite or virus in culture. Particulars: Klebsiella pneumoniae, ATCCBAA1904.
From the text: as §1

Test [13] relates to Klebsiella pneumoniae ATCC BAA-1905. Put plainly: microbe, parasite or virus in culture. Particulars: Klebsiella pneumoniae, ATCCBAA1905.
From the text: as §1

The subject of test [14] is Klebsiella pneumoniae NCTC 13439. Put plainly: microbe, parasite or virus in culture. The note with it: Klebsiella pneumoniae, NCTC13439.
From the text: as §1

For test [15], the system named is Klebsiella pneumoniae NCTC 13442. Nature of the test: microbe, parasite or virus in culture. The note with it: Klebsiella pneumoniae, NCTC13442.
From the text: as §1

The test system of test [16] is Klebsiella pneumoniae NCTC 13443. Put plainly: microbe, parasite or virus in culture. Particulars: Klebsiella pneumoniae, NCTC13443.
From the text: as §1

Test [17] concerns Pseudomonas aeruginosa DSM 1117. Put plainly: microbe, parasite or virus in culture. Particulars: Pseudomonas aeruginosa, DSM1117.
From the text: as §1

Test [18] deals with Serratia marcescens DSM 17174. Nature of the test: microbe, parasite or virus in culture. Particulars: Serratia marcescens, DSM17174.
From the text: as §1

The subject of test [19] is Staphylococcus aureus ATCC 29213. Put plainly: microbe, parasite or virus in culture. The note with it: Staphylococcus aureus, ATCC29213.
From the text: as §1

The test system of test [20] is Staphylococcus epidermidis ATCC 12228. Put plainly: microbe, parasite or virus in culture. Particulars: Staphylococcus epidermidis, ATCC12228.
From the text: as §1

In test [21] the test system is Stenotrophomonas maltophilia ATCC 13637. Put plainly: microbe, parasite or virus in culture. The note with it: Stenotrophomonas maltophilia, ATCC13637.
From the text: as §1

Test [22] has as its system Streptococcus pneumoniae DSM 2134. Nature of the test: microbe, parasite or virus in culture. Particulars: Streptococcus pneumoniae, DSM2134.
From the text: as §1

For test [23], the system named is K. pneumoniae NCTC 13442 (OXA-48). Nature of the test: Neutropenic mouse lung infection model. The class given is in vivo, Klebsiella pneumoniae. The note with it: 160 mg/kg/day s.c. (40 mg/kg at 2, 8, 14, 20 h), 26 h postchallenge.
Test [24] concerns Escherichia coli, colistin-resistant (25).
From the text: as §1

Test [25] concerns Klebsiella pneumoniae, colistin resistant (46).
From the text: as §1

On to `CN(C)c1cc(NC(=O)CNC(C)(C)C)c(O)c2c1C[C@H]1C[C@H]3[C@H](N(C)C)C(O)=C(C(N)=O)C(=O)[C@@]3(O)C(O)=C1C2=O` [TGC, tigecycline], for which the MIC in [1] came out at 1 µg/mL (≈ 1.71 µM); in test [2] it was 1 µg/mL (≈ 1.71 µM); in test [3] it was 1 µg/mL (≈ 1.71 µM); in [4], 1 µg/mL (≈ 1.71 µM); in test [5], 4 µg/mL (≈ 6.83 µM); in test [6], 0.25 µg/mL (≈ 0.427 µM). Moreover, the MIC in test [7] came to 0.125 µg/mL (≈ 0.213 µM); in test [8] it was 0.25 µg/mL (≈ 0.427 µM); in test [9] (Ambler class B carbapenemase), 1 µg/mL (≈ 1.71 µM); in test [9] (Escherichia coli, BAA2469, Ambler class B carbapenemase), 0.5 µg/mL (≈ 0.854 µM); in test [10], 1 µg/mL (≈ 1.71 µM); in [11], 2 µg/mL (≈ 3.41 µM). Besides, the MIC in [12] was 2 µg/mL (≈ 3.41 µM); in test [13], 4 µg/mL (≈ 6.83 µM); in test [14], 2 µg/mL (≈ 3.41 µM); in test [15], 2 µg/mL (≈ 3.41 µM); in [16], 4 µg/mL (≈ 6.83 µM); in [17], greater than 8 µg/mL. In addition, the MIC in [18] is 4 µg/mL (≈ 6.83 µM); in test [19], 0.5 µg/mL (≈ 0.854 µM); in [20] it was 0.5 µg/mL (≈ 0.854 µM); in test [21], 0.5 µg/mL (≈ 0.854 µM); in [22] it was 0.125 µg/mL (≈ 0.213 µM). In test [23], the “reduction of lung burden relative to vehicle” value is 3.14 log10 CFU/gram of lung tissue.

With colistin [CST], the MIC range in [24] (Unknown mechanism (2 isolates)) is 16 µg/mL; in test [24] (mcr-1 (21 isolates)), 4 to 16 µg/mL; in test [24] (mcr-2 (1 isolate)), 8 µg/mL; in test [24] (mcr-3 (1 isolate)) it was 16 µg/mL; in [25] (Unknown mechanism (1)), 32 µg/mL; in test [25] (crrB G183V substitution (1)), greater than 128 µg/mL. Further, the MIC range is greater than 128 µg/mL in [25] (crrB N141Y substitution (1)); greater than 128 µg/mL in test [25] (crrB P151L substitution (1)); 32 µg/mL in [25] (mcr-1 (1)); 128 µg/mL in test [25] (mgrB IS1R between +44 and +45 (2)); 32 to 128 µg/mL in test [25] (mgrB IS1R into promoter between −45 and −46 (3)); 16 to 128 µg/mL in [25] (mgrB IS5 between +74 and +75 (4)). In addition, the MIC range in [25] (mgrB IS903B between +69 and +70 (2)) turned out to be 64 µg/mL; in test [25] (mgrB ISKpn14 into promoter between −28 and −29 (2)), 64 µg/mL; in test [25] (mgrB M27K substitution (1)), 32 µg/mL; in test [25] (mgrB N42Y and K43I substitutions (1)), 32 µg/mL; in test [25] (mgrB W20R substitution (1)) it was 32 µg/mL; in [25] (mgrB W47R substitution (1)) it was 8 µg/mL. Besides, the MIC range was 32 to 128 µg/mL in [25] (mgrB premature termination (6)), greater than 128 µg/mL in [25] (phoQ R16C substitution (1)), 32 µg/mL in [25] (pmrB L17Q substitution (1)) and 8 to 32 µg/mL in test [25] (pmrB T157P substitution (6)).
